What all share (format): physicochemical
The nature of series [1]: Transformation by pressing (crystal form before and after pressing). The settings on record: for Crystal Form after pressing: 100 mg pressed with approximately 1300 psi during 2 minutes.
Series [2] can be described thus: Polymorphic stability when maintained at room temperature.
Series [3] can be described thus: Transformation by slurry in other solvents (n-hexane, toluene, water) and drying, form determined by XRD. An excerpt: Similarly to example 6 Zolmitriptan samples were slurried from other solvents or solvent systems after dissolution and precipitation from a specific solvent.
A short description of series [4]: Transformation by heating and slurry in acetone-water mixture (20:80), form determined by XRD. The protocol:
A sample of zolmitriptan (6 g) was placed in a glass flask with solvent and heated to reflux until the zolmitriptan dissolved. The zolmitriptan was cooled to room temperature while stirring, and left at 4° C. overnight. The mixture was filtered and the solid obtained was divided in half. One half of the solid was labeled “wet” and the other half was dried in a vacuum oven at about 60° C.-70° C. overnight and labeled as “dried.”
One third of the wet portion of each sample was separated for XRD, and marked as “_w” . One third of the dried portion of each sample was separated for XRD, and marked as “_d” . For example, “1w” refers to the wet portion of sample 1 analyzed by XRD before slurry in acetone/water, and “1d” refers to the dried portion of sample 1 analyzed by XRD before slurry in acetone/water.
The remaining two-thirds of the wet sample was weighed, placed in a glass flask containing 10 v/w of acetone:water (20:80), stirred for about 30 minutes at room temperature, and left at about 4° C. overnight. The mixture was filtered and the solid obtained was divided in half. One half was labeled “_w-ac-w.” The other half was dried in a vacuum oven at about 60° C.-70° C. overnight, and labeled “_w-ac-d.” For example, “1w-ac-w” refers to the portion of the wet sample resulting from slurry in acetone/water, while “1w-ac-d” refers to the portion of the wet sample resulting from slurry in acetone/water that was dried.
Likewise, the remaining two-thirds of the dry sample was weighed, placed in a glass flask containing 10 v/w of acetone:water (20:80), stirred for about 30 minutes at room temperature, and left at about 4° C. overnight. The mixture was filtered and the solid obtained was divided in half. One half was labeled “_d-ac-w.” The other half was dried in a vacuum oven at about 60° C.-70° C. overnight, and labeled “_d-ac-d.” For example, “1d-ac-w” refers to the portion of the dry sample resulting from slurry in acetone/water, while “1d-ac-d” refers to the portion of the dry sample resulting from slurry in acetone/water that was then dried.

[5] abbreviates: immersed in 10 v/w n-Hexane, filtered, sucked ½ hour on Buchner.
[6] abbreviates: Toluene, dried 63 °C under reduced pressure.
[7] abbreviates: Water, dried 63 °C under reduced pressure.
The mark [8] stands for this setting: immersed in 10 v/w Toluene, filtered, sucked ½ hour on Buchner.
Where [9] appears, read: immersed in 10 v/w Water, filtered, sucked ½ hour on Buchner.
Setting [10] is: n-Hexane, dried 63 °C under reduced pressure.

`CN(C)CCc1c[nH]c2ccc(C[C@H]3COC(=O)N3)cc12` [Form D]: in series [1], the “Crystal Form after pressing” value is “Form D” and the “transformation to other crystal form on pressing” value (shortened to “transformation”) is “not transform to other crystal form”. For the same compound, the “polymorphic stability (conversion to Form A)” value (shortened to “polymorphic stability”) in series [2] is reported as “do not convert to Form A”.
On to `CN(C)CCc1c[nH]c2ccc(C[C@H]3COC(=O)N3)cc12` [Form E], for which the “XRD sample (form after treatment)” value is listed as “Form K” in series [3] (Toluene, dried 63 °C under reduced pressure, listed as E); “Form A” in series [3] (immersed in 10 v/w Water, filtered, sucked ½ hour on Buchner, listed as E); “Form D” in series [3] (setting [5]); “Form A + ˜30% D” in series [3] (n-Hexane, dried 63 °C under reduced pressure, listed as E).
As for `CN(C)CCc1c[nH]c2ccc(C[C@H]3COC(=O)N3)cc12` [Form F], in series [1], the “Crystal Form after pressing” value is listed as “Form F” and the “transformation” value is reported as “not transform to other crystal form”.
With `CN(C)CCc1c[nH]c2ccc(C[C@H]3COC(=O)N3)cc12` [Form G], in series [1], the “Crystal Form after pressing” value is on record as “Form G”. For the same compound, the “transformation” value in series [1] is listed as “not transform to other crystal form”. Also, the “polymorphic stability” value in series [2] is on record as “do not convert to Form A”. Further, the “XRD sample (form after treatment)” value in series [3] (setting [6]) is “Form A + ˜10% K”; in series [3] (setting [7]), “Form A”; in series [3] (setting [8]), “Form K”; in series [3] (setting [9]) it was “Form A”; in series [3] (setting [5]), “Form D”; in series [3] (setting [10]), “Essent.Am D”.
For `CN(C)CCc1c[nH]c2ccc(C[C@H]3COC(=O)N3)cc12` [Form H], in series [1], the “Crystal Form after pressing” value is “Form H” and the “transformation” value is on record as “not transform to other crystal form”. Also, in series [2], the “polymorphic stability” value is listed as “do not convert to Form A”.
As to `CN(C)CCc1c[nH]c2ccc(C[C@H]3COC(=O)N3)cc12` [Form I], the “Crystal Form after pressing” value in series [1] is reported as “Form I”. The “transformation” value in series [1] is listed as “not transform to other crystal form”. Besides, the “polymorphic stability” value in series [2] is recorded as “do not convert to Form A”. Besides, the “XRD sample (form after treatment)” value in series [3] (setting [6]) is listed as “Form A”; in series [3] (setting [7]) it was “Form A”; in series [3] (setting [8]), “Form K”; in series [3] (setting [9]), “Form A”; in series [3] (setting [5]) it was “Form D”; in series [3] (setting [10]) it was “Form A”.
Consider `CN(C)CCc1c[nH]c2ccc(C[C@H]3COC(=O)N3)cc12` [Form J], for which, in series [1], the “Crystal Form after pressing” value is recorded as “Form J” and the “transformation” value was “not transform to other crystal form”. For the same compound, the “polymorphic stability” value in series [2] is listed as “do not convert to Form A”.
In the case of `CN(C)CCc1c[nH]c2ccc(C[C@H]3COC(=O)N3)cc12` [Form K], in series [1], the “Crystal Form after pressing” value is given as “Form K”. Also, in series [1], the “transformation” value is “not transform to other crystal form”. The “polymorphic stability” value in series [2] is listed as “do not convert to Form A”. For the same compound, the “XRD sample (form after treatment)” value in series [3] (setting [6]) is “Form A”; in series [3] (setting [7]), “Form A”; in series [3] (setting [8]), “Form K”; in series [3] (setting [9]), “Form A + ˜10% K”; in series [3] (setting [5]) it was “Form D”; in series [3] (setting [10]) it was “Form A”.
For `CN(C)CCc1c[nH]c2ccc(C[C@H]3COC(=O)N3)cc12` [Form M], in series [1], the “Crystal Form after pressing” value is listed as “Form M” and the “transformation” value is reported as “not transform to other crystal form”.
The matching figures for `CN(C)CCc1c[nH]c2ccc(C[C@H]3COC(=O)N3)cc12` [Form O]: “Form O” and “not transform to other crystal form”.
Turning to `CN(C)CCc1c[nH]c2ccc(C[C@H]3COC(=O)N3)cc12` [Form P], in series [1], the “Crystal Form after pressing” value was “Form P” and the “transformation” value is reported as “not transform to other crystal form”. Besides, the “polymorphic stability” value in series [2] is on record as “do not convert to Form A”.
In the case of `CN(C)CCc1c[nH]c2ccc(C[C@H]3COC(=O)N3)cc12` [Form R], the “XRD sample (form after treatment)” value in series [3] (setting [7]) is “Form A”; in series [3] (setting [8]), “Form K”; in series [3] (setting [9]), “Form A”; in series [3] (setting [5]) it was “Form D”; in series [3] (n-Hexane, dried 63 °C under reduced pressure, listed as R), “Essent.Am D”.
Consider `CN(C)CCc1c[nH]c2ccc(C[C@H]3COC(=O)N3)cc12` [Form T], for which, in series [1], the “Crystal Form after pressing” value is given as “Form T” and the “transformation” value was “not transform to other crystal form”.
For the compound `CN(C)CCc1c[nH]c2ccc(C[C@H]3COC(=O)N3)cc12` [Sample 1], the “Resulting Crystal Form” value in series [4] (_d-ac-d: dried sample slurried in acetone:water (20:80), then dried in vacuum oven 60-70 °C overnight) is “Form A”; in series [4] (_w-ac-w: wet sample slurried in 10 v/w acetone:water (20:80), 30 min room temperature, 4 °C overnight, filtered, not dried, listed as 1w-ac-w), “Form A”; in series [4] (_w: wet portion after crystallization, before slurry in acetone/water, listed as 1w) it was “Form A”.
In the case of `CN(C)CCc1c[nH]c2ccc(C[C@H]3COC(=O)N3)cc12` [Sample 2], the “Resulting Crystal Form” value is reported as “Form A” in series [4] (_d-ac-w: dried sample slurried in 10 v/w acetone:water (20:80), 30 min room temperature, 4 °C overnight, filtered, not dried); “Form A” in series [4] (_d: portion dried in vacuum oven 60-70 °C overnight, before slurry in acetone/water); “Form A” in series [4] (_w-ac-d: wet sample slurried in acetone:water (20:80), then dried in vacuum oven 60-70 °C overnight); “Form A” in series [4] (_w-ac-w: wet sample slurried in 10 v/w acetone:water (20:80), 30 min room temperature, 4 °C overnight, filtered, not dried, listed as 2w-ac-w); “Form Q” in series [4] (_w: wet portion after crystallization, before slurry in acetone/water, listed as 2w).
Regarding `CN(C)CCc1c[nH]c2ccc(C[C@H]3COC(=O)N3)cc12` [Sample 3], the “Resulting Crystal Form” value in series [4] (_w-ac-w: wet sample slurried in 10 v/w acetone:water (20:80), 30 min room temperature, 4 °C overnight, filtered, not dried, listed as 3w-ac-w) is “Form A”; in series [4] (_w: wet portion after crystallization, before slurry in acetone/water, listed as 3w), “Form G”.
For `CN(C)CCc1c[nH]c2ccc(C[C@H]3COC(=O)N3)cc12` [Sample 4], the “Resulting Crystal Form” value in series [4] (_w-ac-w: wet sample slurried in 10 v/w acetone:water (20:80), 30 min room temperature, 4 °C overnight, filtered, not dried, listed as 4w-ac-w) is given as “Form A”; in series [4] (_w: wet portion after crystallization, before slurry in acetone/water, listed as 4w), “Form A”.
For the compound `CN(C)CCc1c[nH]c2ccc(C[C@H]3COC(=O)N3)cc12` [Sample 5], the “Resulting Crystal Form” value in series [4] (_w-ac-w: wet sample slurried in 10 v/w acetone:water (20:80), 30 min room temperature, 4 °C overnight, filtered, not dried, listed as 5w-ac-w) was “Form A”; in series [4] (_w: wet portion after crystallization, before slurry in acetone/water, listed as 5w), “Form D”.
Turning to `CN(C)CCc1c[nH]c2ccc(C[C@H]3COC(=O)N3)cc12` [Sample 6], the “Resulting Crystal Form” value is “Form A” in series [4] (_w-ac-w: wet sample slurried in 10 v/w acetone:water (20:80), 30 min room temperature, 4 °C overnight, filtered, not dried, listed as 6w-ac-w) and “Form S” in series [4] (_w: wet portion after crystallization, before slurry in acetone/water, listed as 6w).
Turning to `CN(C)CCc1c[nH]c2ccc(C[C@H]3COC(=O)N3)cc12` [Sample 7], the “Resulting Crystal Form” value is given as “Form K + ˜30% A” in series [4] (_w-ac-w: wet sample slurried in 10 v/w acetone:water (20:80), 30 min room temperature, 4 °C overnight, filtered, not dried, listed as 7w-ac-w) and “Form K” in series [4] (_w: wet portion after crystallization, before slurry in acetone/water, listed as 7w).
As to `CN(C)CCc1c[nH]c2ccc(C[C@H]3COC(=O)N3)cc12` [Sample 8], the “Resulting Crystal Form” value in series [4] (_w-ac-w: wet sample slurried in 10 v/w acetone:water (20:80), 30 min room temperature, 4 °C overnight, filtered, not dried, listed as 8w-ac-w) is “Form K + ˜30% A”; in series [4] (_w: wet portion after crystallization, before slurry in acetone/water, listed as 8w), “Form K”.

For the origin of these results see patent publication US20060211751A1, “Zolmitriptan crystal forms” (priority 2004, published 2006).
